The source of these data is US20170215424A1 (SUMITOMO CHEMICAL COMPANY, LIMITED, priority 2014, published 2017).

Bounds are passed on as bounds.

Format in all cases: in vivo
One assay deals with Blattella germanica. Description: Test Example 1: spray knockdown test on Blattella germanica. The settings on record: 0.25 h, 10 vermin, oil solution 2.0% w/v, 1.5 ml sprayed, within 15 minutes, read-out: knockdown ratio of test vermin within 15 minutes. The procedure: A formulation containing each of the present amide compounds (1), (2), (4), (8), (12), (13), (14), (15), (16), (18), (20), (24), (25), (27) and (28) prepared in accordance with Formulation Example 7 was diluted with an isopropyl alcohol/deodorized kerosine=1/9 mixed liquid so that the active ingredient concentration became 2.0% w/v, to prepare a drug solution for a test.
Ten vermin of Blattella germanica (male female each five vermin) were allowed to release in a container for a test in which a butter was applied on an inner wall (diameter 8.75 cm, height 7.5 cm, bottom face covered with 16 mesh wire net), and the container was arranged on a bottom of a chamber for a test (bottom surface: 46 cm×46 cm, height: 70 cm). From a height of 60 cm from an upper side of the container, 1.5 ml of the drug solution for a test was sprayed using a spray gun (spraying pressure 0.42 kg/cm^2). Thirty seconds after spraying, the container was taken out from the chamber for a test, the number of vermin which had been knocked down was counted for 15 minutes with time, and a knockdown ratio was obtained. The knockdown ratio was calculated by the following expression.
(§1) Knockdown ratio (%)=(number of knocked down vermin/number of test vermin)×100

The test system of another assay is Culexpipienspallens. Description: Test Example 3: spray knockdown test on Culexpipienspallens imagoes. The settings on record: 0.25 h, oil solution 0.1% w/v, 0.5 ml sprayed, within 15 minutes, read-out: knockdown ratio of the test vermin within 15 minutes. The procedure:
A formulation containing each of the present amide compounds (1), (2), (4), (5), (6), (7), (8), (9), (10), (12), (13), (14), (15), (16), (18), (19), (21), (22), (24), (25), (26) and (27) prepared in accordance with Formulation Example 7 was diluted with an isopropyl alcohol/deodorized kerosine=1/9 mixed liquid so that the active ingredient concentration became 0.1% w/v, to prepare a drug solution for a test.
Ten imagoes of Culexpipienspallens were allowed to release in a polyethylene cup (bottom surface diameter 10.6 cm), and the cup was covered with a 16 mesh nylon gauze. The polyethylene cup was arranged on a bottom of a chamber for a test (bottom surface: 46 cm×46 cm, height: 70 cm). From a height of 30 cm from an upper surface of the polyethylene cup, 0.5 ml of the drug solution for a test was sprayed using a spray gun (spraying pressure 0.4 kg/cm^2). After spraying, the cup was immediately taken out from the chamber for a test, the number of knocked down vermin was counted for 15 minutes with time, and a knockdown ratio was obtained. The knockdown ratio was calculated by the following expression.
as §1

In another assay the test system is Spodopteralitura. Description: Test Example 7: cabbage spray test on fourth instar larvae of Spodopteralitura. Particulars: 500 ppm spray, 20 ml/cup, after 4 days. The procedure:
A formulation containing the present amide compound (25) prepared in accordance with Formulation Example 15 was diluted with water so that active ingredient concentration became 500 ppm, to preparer a spray solution for a test. On the other hand, a cabbage was planted in a polyethylene cup, and grown until a third true leaf or a fourth true leaf developed. On the cabbage, the spray solution for a test was sprayed at a rate of 20 ml/cup. After the drug solution which had been spraying-treated on the cabbage was dried, ten fourth instar larvae of Spodopteralitura were parasitized. The number of live vermin of Spodopteralitura on a cabbage leaf was investigated after 4 days, and a controlling value was obtained according to the following expression. Controlling value (%)={1−(Cb×Tai)/(Cai×Tb)}×100 In addition, letters in the equation represent the following meanings. Cb: Number of vermin before treatment of non-treated section Cai: Number of vermin at observation of non-treated section Tb: Number of vermin before treatment of treated-section Tai: Number of vermin at observation of treated-section

For `O=C(NCC1CCOC1)C1=COC(COCc2ccccc2)CC1` (stereo not shown), in the assay with Blattella germanica, the pest or weed control at 2 % strength was no less than 80%. Regarding `CCCCC1CC(C(=O)NCC2CCOC2)=NO1` (stereo not shown) [present amide compound (1), N-(tetrahydrofuran-3-ylmethyl)-5-butyl-4,5-dihydroisoxazole-3-carboxamide], in the assay on Blattella germanica, the pest or weed control at 2 % strength was no less than 80%. The pest or weed control at 0.1 % strength in the assay on Culexpipienspallens was no less than 80%.

As for `CCCCCC1CC(C(=O)NCC2CCOC2)=NO1` (stereo not shown) [present amide compound (2), N-(tetrahydrofuran-3-ylmethyl)-5-pentyl-4,5-dihydroisoxazole-3-carboxyamide], the pest or weed control at 2 % strength in the assay with Blattella germanica was no less than 80%. Further, the pest or weed control at 0.1 % strength in the assay on Culexpipienspallens was no less than 80%. On to `O=C(NCC1CCOC1)C1=NOC(CCc2ccccc2)C1` (stereo not shown) [present amide compound (4), N-(tetrahydrofuran-3-ylmethyl)-5-phenethyl-4,5-dihydroisoxazole-3-carboxamide], for which the pest or weed control at 2 % strength in the assay on Blattella germanica is no less than 80%. The pest or weed control at 0.1 % strength in the assay on Culexpipienspallens is no less than 80%.

`O=C(NCC1CCOC1)C1=NOC(COc2ccccc2)C1` (stereo not shown) [present amide compound (5), N-(tetrahydrofran-3-ylmethyl)-5-(phenoxymethyl)-4,5-dihydro isoxazole-3-carboxamide]: in the assay on Culexpipienspallens, the pest or weed control at 0.1 % strength was no less than 80%. In the case of `O=C(NCC1CCOC1)C1=NOC(CCOc2ccccc2)C1` (stereo not shown) [present amide compound (6), N-(tetrahydrofran-3-ylmethyl)-5-(2-phenoxyethyl)-4,5-dihydroisoxazole-3-carboxamide], the pest or weed control at 0.1 % strength in the assay on Culexpipienspallens was no less than 80%. With `O=C(NCC1CCOC1)C1=NOC(CCCOc2ccccc2)C1` (stereo not shown) [present amide compound (7), N-(tetrahydrofran-3-ylmethyl)-5-(3-phenoxypropyl)-4,5-dihydroisoxazole-3-carboxamide], in the assay with Culexpipienspallens, the pest or weed control at 0.1 % strength was no less than 80%. Take `O=C(NCC1CCOC1)C1=NOC(CCCCOc2ccccc2)C1` (stereo not shown) [present amide compound (8), N-(tetrahydrofuran-3-ylmethyl)-5-(4-phenoxybutyl)-4,5-dihydroisoxazole-3-carboxamide]: the pest or weed control at 2 % strength with Blattella germanica is no less than 80%. Moreover, the pest or weed control at 0.1 % strength in the assay with Culexpipienspallens is no less than 80%. `O=C(NCC1CCOC1)C1=NOC(CCCCCCOc2ccccc2)C1` (stereo not shown) [present amide compound (10), N-(tetrahydrofuran-3-ylmethyl)-5-(6-phenoxyhexyl)-4,5-dihydroisoxazole-3-carboxamide]: the pest or weed control at 0.1 % strength in the assay with Culexpipienspallens is no less than 80%. Consider `O=C(NCC1CCOC1)C1=NOC(CCOCc2ccccc2)C1` (stereo not shown) [present amide compound (12), N-(tetrahydrofuran-3-ylmethyl)-5-(2-benzyloxyethyl)-4,5-dihydroisoxazole-3-carboxamide], for which the pest or weed control at 2 % strength in the assay on Blattella germanica was no less than 80%. For the same compound, in the assay with Culexpipienspallens, the pest or weed control at 0.1 % strength is no less than 80%. In the case of `O=C(NCC1CCOC1)C1=NOC(CCCOCc2ccccc2)C1` (stereo not shown) [present amide compound (13), N-(tetrahydrofuran-3-ylmethyl)-5-(3-benzyloxypropyl)-4,5-dihydroisoxazole-3-carboxamide], the pest or weed control at 2 % strength with Blattella germanica was no less than 80%. For the same compound, the pest or weed control at 0.1 % strength in the assay on Culexpipienspallens was no less than 80%. As to `O=C(NCC1CCOC1)C1=NOC(CCCCOCc2ccccc2)C1` (stereo not shown) [present amide compound (14), N-(tetrahydrofuran-3-ylmethyl)-5-(4-benzyloxybutyl)-4,5-dihydroisoxazole-3-carboxamide], in the assay with Blattella germanica, the pest or weed control at 2 % strength was no less than 80%. In addition, in the assay on Culexpipienspallens, the pest or weed control at 0.1 % strength is no less than 80%. As for `O=C(NCC1CCOC1)C1=NOC(CCCCCOCc2ccccc2)C1` (stereo not shown) [present amide compound (15), N-(tetrahydrofuran-3-ylmethyl)-5-(5-benzyloxypentyl)-4,5-dihydroisoxazole-3-carboxamide], the pest or weed control at 2 % strength with Blattella germanica is no less than 80%. Moreover, the pest or weed control at 0.1 % strength in the assay with Culexpipienspallens is no less than 80%. Regarding `O=C(NCC1CCOC1)C1=NOC(CCCCCCOCc2ccccc2)C1` (stereo not shown) [present amide compound (16), N-(tetrahydrofuran-3-ylmethyl)-5-(6-benzyloxyhexyl)-4,5-dihydroisoxazole-3-carboxamide], the pest or weed control at 2 % strength in the assay with Blattella germanica is no less than 80%. In the assay with Culexpipienspallens, the pest or weed control at 0.1 % strength is no less than 80%. As for `O=C(NCC1CCOC1)C1=NOC(CCCOCCc2ccccc2)C1` (stereo not shown) [present amide compound (18), N-(tetrahydrofuran-3-ylmethyl)-5-(3-phenethyloxypropyl)-4,5-dihydroisoxazole-3-carboxamide], the pest or weed control at 2 % strength with Blattella germanica was no less than 80%. Further, in the assay on Culexpipienspallens, the pest or weed control at 0.1 % strength was no less than 80%. For `O=C(NCC1CCOC1)C1=NOC(COc2ccc3ccccc3c2)C1` (stereo not shown) [present amide compound (19), N-(tetrahydrofuran-3-ylmethyl)-5-(2-naphthyloxymethyl)-4,5-dihydroisoxazole-3-carboxamide], the pest or weed control at 0.1 % strength in the assay on Culexpipienspallens was no less than 80%. For `O=C(NCC1CCOC1)C1=NOC(COCc2ccc3ccccc3c2)C1` (stereo not shown) [present amide compound (20), N-(tetrahydrofuran-3-ylmethyl)-5-(2-naphthylmethyloxymethyl)-4,5-dihydroisoxazole-3-carboxamide], the pest or weed control at 2 % strength with Blattella germanica is no less than 80%.

Regarding `O=C(NCC1CCOC1)C1=NOC(CCCOCc2ccc3ccccc3c2)C1` (stereo not shown) [present amide compound (21), N-(tetrahydrofuran-3-ylmethyl)-5-(2-naphthylmethyloxypropyl)-4,5-dihydroisoxazole-3-carboxamide], the pest or weed control at 0.1 % strength with Culexpipienspallens was no less than 80%.

With `CC1C(C(=O)NCC2CCOC2)=NOC1COc1ccccc1` (stereo not shown) [present amide compound (22), N-(tetrahydrofuran-3-ylmethyl)-4-methyl-5-phenoxymethyl-4,5-dihydroisoxazole-3-carboxamide], the pest or weed control at 0.1 % strength with Culexpipienspallens is no less than 80%. As for `O=C(NCC1CCOC1)C1=NOC(COc2ccccc2)CC1` (stereo not shown) [present amide compound (24), N-(tetrahydrofuran-3-ylmethyl)-6-phenoxymethyl-5,6-dihydro-4H-[1,2]oxazine-3-carboxamide], the pest or weed control at 2 % strength with Blattella germanica was no less than 80%. Also, the pest or weed control at 0.1 % strength in the assay on Culexpipienspallens was no less than 80%. As to `O=C(NCC1CCOC1)C1=NOC(COc2cccc(Cl)c2)CC1` (stereo not shown) [present amide compound (25), N-(tetrahydrofuran-3-ylmethyl)-6-(3-chloro-phenoxymethyl)-5,6-dihydro-4H-[1,2]oxazine-3-carboxamide], the controlling value in the assay on Spodopteralitura is on record as no less than 80%. For the same compound, the pest or weed control at 2 % strength with Blattella germanica is no less than 80%. Further, in the assay on Culexpipienspallens, the pest or weed control at 0.1 % strength was no less than 80%. In the case of `O=C(NCC1CCOC1)C1=NOC(COCc2ccccc2)CC1` (stereo not shown) [present amide compound (26), N-(tetrahydrofuran-3-ylmethyl)-6-benzyloxymethyl-5,6-dihydro-4H-[1,2]oxazine-3-carboxamide], the pest or weed control at 0.1 % strength with Culexpipienspallens is no less than 80%. Regarding `O=C(NCC1CCOC1)C1=COC(COc2ccccc2)CC1` (stereo not shown) [present amide compound (27), N-(tetrahydrofuran-3-ylmethyl)-6-phenoxymethyl-5,6-dihydro-4H-pyrane-3-carboxamide], the pest or weed control at 2 % strength with Blattella germanica was no less than 80%. Besides, the pest or weed control at 0.1 % strength in the assay on Culexpipienspallens was no less than 80%.
